Test results as given in patent US10202361B2, “Pyridazinones as herbicides” (E I DU PONT DE NEMOURS AND COMPANY, priority 2014, dated 2019).
Read-outs that look alike come from different tables or passages of the source.

Legend:
Assay in all cases: Test A pre-/postemergence greenhouse herbicide test
Assay type in all cases: in vivo
[1] = tested on: velvetleaf (Abutilon theophrasti); conditions: Abutilon theophrasti, 240 h, 0 to 100 scale (0 no effect, 100 complete control), approx. 10 d, read-out: Plant response rating, Velvetleaf; for pest or weed control at 125 g/ha: 125 g ai/ha; for pest or weed control at 500 g/ha: 500 g ai/ha
Summary of the method: (§1)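 Seeds sown in loam–sand blend received a directed preemergence soil spray; postemergence spray was applied at the same time to plants 2–10 cm tall at one- to two-leaf stage. Compounds were in non-phytotoxic solvent with surfactant. Visual injury versus untreated controls after ~10 d in greenhouse, 0–100 scale (100 = complete control).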

[2] = tested on: pigweed (Amaranthus retroflexus); conditions: Amaranthus retroflexus, 240 h, 0 to 100 scale (0 no effect, 100 complete control), approx. 10 d, read-out: Plant response rating, Pigweed; for pest or weed control at 125 g/ha: 125 g ai/ha; for pest or weed control at 500 g/ha: 500 g ai/ha
Summary of the method: as §1

[3] = tested on: morningglory (Ipomoea spp.); conditions: Ipomoea, 240 h, 0 to 100 scale (0 no effect, 100 complete control), approx. 10 d, read-out: Plant response rating, Morningglory; for pest or weed control at 125 g/ha: 125 g ai/ha; for pest or weed control at 500 g/ha: 500 g ai/ha
Summary of the method: as §1

[4] = tested on: wheat (Triticum aestivum); conditions: Triticum aestivum, 240 h, 0 to 100 scale (0 no effect, 100 complete control), approx. 10 d, read-out: Plant response rating, Wheat; for plant injury at 125 g/ha: 125 g ai/ha; for plant injury at 500 g/ha: 500 g ai/ha
Summary of the method: as §1

[5] = tested on: barnyardgrass (Echinochloa crus-galli); conditions: Echinochloa crus-galli, 240 h, 0 to 100 scale (0 no effect, 100 complete control), approx. 10 d, read-out: Plant response rating, Barnyardgrass; for pest or weed control at 125 g/ha: 125 g ai/ha; for pest or weed control at 500 g/ha: 500 g ai/ha
Summary of the method: as §1

[6] = tested on: crabgrass, Large (large crabgrass, Digitaria sanguinalis); conditions: Digitaria sanguinalis, 240 h, 0 to 100 scale (0 no effect, 100 complete control), approx. 10 d, read-out: Plant response rating, Crabgrass, Large; for pest or weed control at 125 g/ha: 125 g ai/ha; for pest or weed control at 500 g/ha: 500 g ai/ha
Summary of the method: as §1

corn (Zea mays) = conditions: Zea mays, 240 h, 0 to 100 scale (0 no effect, 100 complete control), approx. 10 d; for Corn plant response rating (crop injury, 0 = no effect, 100 = complete kill) at 125 g/ha: 125 g ai/ha; for Corn plant response rating (crop injury, 0 = no effect, 100 = complete kill) at 500 g/ha: 500 g ai/ha
Summary of the method: as §1

[7] = tested on: foxtail, giant (giant foxtail, Setaria faberii); conditions: Setaria faberi, 240 h, 0 to 100 scale (0 no effect, 100 complete control), approx. 10 d, read-out: Plant response rating, Foxtail, Giant; for pest or weed control at 125 g/ha: 125 g ai/ha; for pest or weed control at 500 g/ha: 500 g ai/ha
Summary of the method: as §1

| Compound | pest or weed control at 125 g/ha ([1]; post-emergence, Postemergence) [%] | pest or weed control at 500 g/ha ([1]; post-emergence, Postemergence) [%] | pest or weed control at 125 g/ha ([1]; pre-emergence, Preemergence) [%] | pest or weed control at 500 g/ha ([1]; pre-emergence, Preemergence) [%] | pest or weed control at 125 g/ha ([2]; post-emergence, Postemergence) [%] | pest or weed control at 500 g/ha ([2]; post-emergence, Postemergence) [%] | pest or weed control at 125 g/ha ([2]; pre-emergence, Preemergence) [%] | pest or weed control at 500 g/ha ([2]; pre-emergence, Preemergence) [%] | pest or weed control at 125 g/ha ([3]; post-emergence, Postemergence) [%] | pest or weed control at 500 g/ha ([3]; post-emergence, Postemergence) [%] | pest or weed control at 125 g/ha ([3]; pre-emergence, Preemergence) [%] | pest or weed control at 500 g/ha ([3]; pre-emergence, Preemergence) [%] | plant injury at 125 g/ha ([4]; post-emergence, Postemergence) [%] | plant injury at 500 g/ha ([4]; post-emergence, Postemergence) [%] | plant injury at 125 g/ha ([4]; pre-emergence, Preemergence) [%] | plant injury at 500 g/ha ([4]; pre-emergence, Preemergence) [%] | pest or weed control at 125 g/ha ([5]; post-emergence, Postemergence) [%] | pest or weed control at 500 g/ha ([5]; post-emergence, Postemergence) [%] | pest or weed control at 125 g/ha ([5]; pre-emergence, Preemergence) [%] | pest or weed control at 500 g/ha ([5]; pre-emergence, Preemergence) [%] | other results |
| --- | --- | --- | --- | --- | --- | --- | --- | --- | --- | --- | --- | --- | --- | --- | --- | --- | --- | --- | --- | --- | --- |
| Cc1cc(=O)n(-c2ccc(F)cc2)nc1Cn1ccc(C(F)(F)F)n1 [Compound 3, 2-(4-fluorophenyl)-5-methyl-6-[[3-(trifluoromethyl)-1H-pyrazol-1-yl]methyl]-3(2H)-pyridazinone] | 30 | 80 | 0 | 20 | 60 | 70 | 20 | 80 | 60 | 70 | 0 | 0 | 0 | 0 | 0 | 0 | 0 | 10 | 0 | 20 | pest or weed control at 125 g/ha ([6]; post-emergence, Postemergence): 10%; pest or weed control at 500 g/ha ([6]; post-emergence, Postemergence): 30%; pest or weed control at 125 g/ha ([6]; pre-emergence, Preemergence): 30%; pest or weed control at 500 g/ha ([6]; pre-emergence, Preemergence): 90%; Corn plant response rating (crop injury, 0 = no effect, 100 = complete kill) at 125 g/ha (corn (Zea mays); post-emergence, Postemergence): 0%; Corn plant response rating (crop injury, 0 = no effect, 100 = complete kill) at 500 g/ha (corn (Zea mays); post-emergence, Postemergence): 20%; Corn plant response rating (crop injury, 0 = no effect, 100 = complete kill) at 125 g/ha (corn (Zea mays); pre-emergence, Preemergence): 0%; Corn plant response rating (crop injury, 0 = no effect, 100 = complete kill) at 500 g/ha (corn (Zea mays); pre-emergence, Preemergence): 0%; pest or weed control at 125 g/ha ([7]; post-emergence, Postemergence): 10%; pest or weed control at 500 g/ha ([7]; post-emergence, Postemergence): 30%; pest or weed control at 125 g/ha ([7]; pre-emergence, Preemergence): 0%; pest or weed control at 500 g/ha ([7]; pre-emergence, Preemergence): 40% |
| Cc1cc(=O)n(-c2ccc(C(F)(F)F)cc2)nc1Oc1ccnc(C(F)(F)F)c1 [Compound 5, 5-methyl-2-[4-(trifluoromethyl)phenyl]-6-[[2-(trifluoromethyl)-4-pyridinyl]oxy]-3(2H)-pyridazinone] | 70 | 100 | 20 | 100 | 100 | 100 | 100 | 100 | 60 | 100 | 60 | 80 | 30 | 40 | 0 | 10 | 20 | 70 | 40 | 90 | pest or weed control at 125 g/ha ([6]; post-emergence, Postemergence): 50%; pest or weed control at 500 g/ha ([6]; post-emergence, Postemergence): 80%; pest or weed control at 125 g/ha ([6]; pre-emergence, Preemergence): 100%; pest or weed control at 500 g/ha ([6]; pre-emergence, Preemergence): 100%; Corn plant response rating (crop injury, 0 = no effect, 100 = complete kill) at 125 g/ha (corn (Zea mays); post-emergence, Postemergence): 20%; Corn plant response rating (crop injury, 0 = no effect, 100 = complete kill) at 500 g/ha (corn (Zea mays); post-emergence, Postemergence): 30%; Corn plant response rating (crop injury, 0 = no effect, 100 = complete kill) at 125 g/ha (corn (Zea mays); pre-emergence, Preemergence): 0%; Corn plant response rating (crop injury, 0 = no effect, 100 = complete kill) at 500 g/ha (corn (Zea mays); pre-emergence, Preemergence): 10%; pest or weed control at 125 g/ha ([7]; post-emergence, Postemergence): 60%; pest or weed control at 500 g/ha ([7]; post-emergence, Postemergence): 90%; pest or weed control at 125 g/ha ([7]; pre-emergence, Preemergence): 90%; pest or weed control at 500 g/ha ([7]; pre-emergence, Preemergence): 100% |
| CCOc1cc(=O)n(-c2ccc(F)cc2)nc1C(=O)c1ccnc(C(F)(F)F)c1 [Compound 22, 5-ethoxy-2-(4-fluorophenyl)-6-[[2-(trifluoromethyl)-4-pyridinyl]carbonyl]-3(2H)-pyridazinone] | 20 | 50 | 40 | 100 | 100 | 100 | 100 | 100 | 40 | 100 | 30 | 100 | 60 | 90 | 10 | 40 | 20 | 100 | 20 | 80 | pest or weed control at 125 g/ha ([6]; post-emergence, Postemergence): 60%; pest or weed control at 500 g/ha ([6]; post-emergence, Postemergence): 100%; pest or weed control at 125 g/ha ([6]; pre-emergence, Preemergence): 100%; pest or weed control at 500 g/ha ([6]; pre-emergence, Preemergence): 100%; Corn plant response rating (crop injury, 0 = no effect, 100 = complete kill) at 125 g/ha (corn (Zea mays); post-emergence, Postemergence): 50%; Corn plant response rating (crop injury, 0 = no effect, 100 = complete kill) at 500 g/ha (corn (Zea mays); post-emergence, Postemergence): 90%; Corn plant response rating (crop injury, 0 = no effect, 100 = complete kill) at 125 g/ha (corn (Zea mays); pre-emergence, Preemergence): 0%; Corn plant response rating (crop injury, 0 = no effect, 100 = complete kill) at 500 g/ha (corn (Zea mays); pre-emergence, Preemergence): 20%; pest or weed control at 125 g/ha ([7]; post-emergence, Postemergence): 60%; pest or weed control at 500 g/ha ([7]; post-emergence, Postemergence): 100%; pest or weed control at 125 g/ha ([7]; pre-emergence, Preemergence): 90%; pest or weed control at 500 g/ha ([7]; pre-emergence, Preemergence): 100% |
